Experimental data from PubChem BioAssay (NCI).
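Growth conditions: 96-well plates. Treatment: test compound, 48 hours, 5 concentrations. Analysis: linear interpolation between bracketing concentrations; unreached endpoints set to highest concentration. GI50 marks 50% less growth. Definition used: TGI = concentration required for complete inhibition of growth.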

Legend:
Experiment in all cases: growth of human tumour cells (NCI), 48 h
[1] = system: LOX IMVI melanoma
[2] = system: NCI-H460 lung
[3] = system: OVCAR-4 ovarian
[4] = system: SK-OV-3 ovarian
[5] = system: SF-268 CNS
[6] = system: PC-3 prostate
[7] = system: MDA-MB-231 breast
[8] = system: OVCAR-5 ovarian
[9] = system: M14 melanoma
[10] = system: NCI-H226 lung
[11] = system: T-47D breast
[12] = system: CAKI-1 renal
[13] = system: SF-295 CNS
[14] = system: U251 CNS
[15] = system: HL-60(TB) leukemia
[16] = system: NCI/ADR-RES ovarian
[17] = system: OVCAR-3 ovarian
[18] = system: TK-10 renal
[19] = system: SN12C renal
[20] = system: RXF 393 renal
[21] = system: UACC-62 melanoma
[22] = system: RPMI-8226 leukemia
[23] = system: UO-31 renal
[24] = system: HCT-116 colon
[25] = system: NCI-H23 lung
[26] = system: A498 renal
[27] = system: KM12 colon
[28] = system: HT29 colon
[29] = system: MDA-MB-435
[30] = system: HOP-92 NSCLC
[31] = system: SK-MEL-2 melanoma
[32] = system: MCF7 breast
[33] = system: SW-620 colon
[34] = system: OVCAR-8 ovarian
[35] = system: BT-549 breast
[36] = system: EKVX NSCLC
[37] = system: IGROV1 ovarian
[38] = system: SK-MEL-28 melanoma
[39] = system: CCRF-CEM leukemia
[40] = system: ACHN renal
[41] = system: DU-145 prostate
[42] = system: HS 578T breast
[43] = system: MALME-3M melanoma
[44] = system: K-562 leukemia
[45] = system: COLO 205 colon
[46] = system: 786-0 renal
[47] = system: A549 NSCLC
[48] = system: HCT-15 colon
[49] = system: SK-MEL-5 melanoma
[50] = system: MOLT-4 leukemia
[51] = system: HCC-2998 colon
[52] = system: SNB-75 CNS
[53] = system: SR leukemia
[54] = system: HOP-62 NSCLC
[55] = system: SNB-19 CNS
[56] = system: NCI-H522 lung
[57] = system: SF-539 CNS
[58] = system: UACC-257 melanoma

**Q.** What does the source list for `COC1C(O)CC(OC2CC(OC3CC(O[C@@H]4C(=O)c5c(cc6cc(OC7CC(OC8CC(O)C(O)C(C)O8)C(O)C(C)O7)c(C)c(O)c6c5O)CC4[C@H](OC)[C@@H](O)C(C)=O)OC(C)C3O)OC(C)C2O)OC1C` (some centres not stated)?
**A.** GI50 [1]: 0.0067 µM; TGI [1]: 0.0325 µM; GI50 [2]: 0.00673 µM; TGI [2]: > 33.3 µM; GI50 [3]: < 0.0282 µM; TGI [3]: > 23.9 µM; GI50 [4]: 0.0211 µM; TGI [4]: > 33.3 µM; GI50 [5]: 0.0155 µM; TGI [5]: > 33.3 µM; GI50 [6]: 0.0243 µM; TGI [6]: > 33.3 µM; GI50 [7]: 0.051 µM; TGI [7]: > 33.3 µM; GI50 [8]: 0.0309 µM; TGI [8]: > 33.3 µM; GI50 [9]: 0.0202 µM; TGI [9]: 3.91 µM; GI50 [10]: 0.0507 µM; TGI [10]: 0.181 µM; GI50 [11]: 0.0124 µM; TGI [11]: 0.307 µM; GI50 [12]: 0.749 µM; TGI [12]: > 33.3 µM; GI50 [13]: 0.00752 µM; TGI [13]: > 33.3 µM; GI50 [14]: 0.0125 µM; TGI [14]: > 33.3 µM; GI50 [15]: 0.0236 µM; TGI [15]: 6.94 µM; GI50 [16]: > 28.2 µM; TGI [16]: > 33.3 µM; GI50 [17]: 0.0166 µM; TGI [17]: 0.597 µM; GI50 [18]: 0.0257 µM; TGI [18]: > 33.3 µM; GI50 [19]: 0.0192 µM; TGI [19]: > 33.3 µM; GI50 [20]: 0.0152 µM; TGI [20]: 0.364 µM; GI50 [21]: 0.00977 µM; TGI [21]: 0.036 µM; GI50 [22]: 0.014 µM; TGI [22]: > 33.3 µM; GI50 [23]: 0.0315 µM; TGI [23]: 11.3 µM; GI50 [24]: 0.00621 µM; TGI [24]: > 33.3 µM; GI50 [25]: 0.00333 µM; TGI [25]: 1.12 µM; GI50 [26]: 0.0214 µM; TGI [26]: 0.103 µM; GI50 [27]: 0.0124 µM; TGI [27]: > 33.3 µM; GI50 [28]: 0.00995 µM; TGI [28]: 0.0295 µM; GI50 [29]: 0.0156 µM; TGI [29]: 7.07 µM; GI50 [30]: 0.032 µM; TGI [30]: > 33.3 µM; GI50 [31]: 0.0167 µM; TGI [31]: 0.0492 µM; GI50 [32]: 0.00649 µM; TGI [32]: > 33.3 µM; GI50 [33]: 0.0125 µM; TGI [33]: > 33.3 µM; GI50 [34]: 0.0217 µM; TGI [34]: > 33.3 µM; GI50 [35]: < 0.0292 µM; TGI [35]: 12.5 µM; GI50 [36]: 0.014 µM; TGI [36]: > 33.3 µM; GI50 [37]: 0.0197 µM; TGI [37]: > 33.3 µM; GI50 [38]: 0.014 µM; TGI [38]: 0.396 µM; GI50 [39]: 0.0233 µM; TGI [39]: > 33.3 µM; GI50 [40]: 0.025 µM; GI50 [41]: 0.0127 µM; TGI [41]: > 33.3 µM; GI50 [42]: 0.0307 µM; TGI [42]: > 33.3 µM; GI50 [43]: 0.0181 µM; TGI [43]: 1.28 µM; GI50 [44]: 0.0163 µM; TGI [44]: > 33.3 µM; GI50 [45]: 0.0113 µM; TGI [45]: 0.0639 µM; GI50 [46]: 0.0219 µM; TGI [46]: > 33.3 µM; GI50 [47]: 0.00797 µM; TGI [47]: > 33.3 µM; GI50 [48]: 0.335 µM; TGI [48]: > 33.3 µM; GI50 [49]: 0.00993 µM; TGI [49]: 0.0392 µM; GI50 [50]: 0.00749 µM; TGI [50]: 0.34 µM; GI50 [51]: 0.00349 µM; TGI [51]: 0.0258 µM; GI50 [52]: 0.0184 µM; TGI [52]: 3.32 µM; GI50 [53]: 0.00624 µM; TGI [53]: 1.65 µM; GI50 [54]: 0.0171 µM; TGI [54]: 0.154 µM; GI50 [55]: 0.0099 µM; TGI [55]: > 33.3 µM; GI50 [56]: 0.016 µM; TGI [56]: 0.0648 µM; GI50 [57]: 0.00902 µM; TGI [57]: 0.463 µM; GI50 [58]: 0.0187 µM; TGI [58]: 0.0923 µM

**Q.** Which results are given for `NC(Cc1c[nH]c2cc(F)ccc12)C(=O)O` (configuration not stated)?
**A.** GI50 [1]: 820 µM; TGI [1]: > 2500 µM; GI50 [2]: 768 µM; TGI [2]: > 2500 µM; GI50 [3]: > 2500 µM; TGI [3]: > 2500 µM; GI50 [4]: 877 µM; TGI [4]: > 2500 µM; GI50 [5]: 1270 µM; TGI [5]: > 2500 µM; GI50 [6]: 1810 µM; TGI [6]: > 2500 µM; GI50 [7]: 1460 µM; TGI [7]: > 2500 µM; GI50 [8]: 1090 µM; TGI [8]: > 2500 µM; GI50 [9]: 951 µM; TGI [9]: > 2500 µM; GI50 [10]: 2480 µM; TGI [10]: > 2500 µM; GI50 [11]: > 2500 µM; TGI [11]: > 2500 µM; TGI [12]: > 2500 µM; GI50 [13]: 502 µM; TGI [13]: > 2500 µM; GI50 [14]: 872 µM; TGI [14]: > 2500 µM; GI50 [15]: 951 µM; TGI [15]: > 2500 µM; GI50 [16]: 890 µM; TGI [16]: > 2500 µM; GI50 [17]: 792 µM; TGI [17]: > 2500 µM; GI50 [18]: > 2500 µM; TGI [18]: > 2500 µM; GI50 [19]: 1330 µM; TGI [19]: > 2500 µM; GI50 [20]: 1450 µM; TGI [20]: > 2500 µM; GI50 [21]: 1700 µM; TGI [21]: > 2500 µM; GI50 [22]: > 2500 µM; TGI [22]: > 2500 µM; TGI [23]: > 2500 µM; GI50 [24]: 1030 µM; TGI [24]: > 2500 µM; GI50 [25]: 1010 µM; TGI [25]: > 2500 µM; GI50 [26]: > 2500 µM; TGI [26]: > 2500 µM; GI50 [27]: 1180 µM; TGI [27]: > 2500 µM; GI50 [28]: 850 µM; TGI [28]: > 2500 µM; GI50 [29]: 840 µM; TGI [29]: > 2500 µM; GI50 [30]: > 2500 µM; TGI [30]: > 2500 µM; GI50 [31]: 1910 µM; TGI [31]: > 2500 µM; GI50 [32]: 1290 µM; TGI [32]: > 2500 µM; GI50 [33]: 1480 µM; TGI [33]: > 2500 µM; GI50 [34]: 961 µM; TGI [34]: > 2500 µM; GI50 [35]: 841 µM; TGI [35]: > 2500 µM; GI50 [36]: > 2500 µM; TGI [36]: > 2500 µM; GI50 [38]: 1150 µM; TGI [38]: > 2500 µM; GI50 [39]: 1240 µM; TGI [39]: > 2500 µM; GI50 [40]: 1640 µM; TGI [40]: > 2500 µM; GI50 [41]: 903 µM; TGI [41]: > 2500 µM; GI50 [42]: 1780 µM; TGI [42]: > 2500 µM; GI50 [43]: 859 µM; TGI [43]: 2320 µM; GI50 [44]: 912 µM; TGI [44]: > 2500 µM; GI50 [45]: 1120 µM; TGI [45]: > 2500 µM; GI50 [46]: 1080 µM; TGI [46]: > 2500 µM; GI50 [47]: 1150 µM; TGI [47]: > 2500 µM; GI50 [48]: 888 µM; TGI [48]: > 2500 µM; GI50 [49]: 557 µM; TGI [49]: 1140 µM; GI50 [50]: 1340 µM; TGI [50]: > 2500 µM; GI50 [51]: 1640 µM; TGI [51]: > 2500 µM; GI50 [52]: 1940 µM; TGI [52]: > 2500 µM; GI50 [53]: 1040 µM; TGI [53]: > 2500 µM; GI50 [54]: 961 µM; TGI [54]: > 2500 µM; GI50 [55]: 1440 µM; TGI [55]: > 2500 µM; GI50 [56]: 773 µM; TGI [56]: 2280 µM; GI50 [57]: 890 µM; TGI [57]: > 2500 µM; GI50 [58]: 1490 µM; TGI [58]: > 2500 µM
